# Test results reported in ChEMBL document CHEMBL5365463, “Identification of a Self-Assembling Small-Molecule Cancer Vaccine Adjuvant with an Improved Toxicity Profile” (J Med Chem, 2023).
# Activity calls are given as the source filed them. The calls are words filed in the database; no cut-off is given here.
# Legend:
# [1] = Toxicity in BALB/c mouse assessed as reduction in platelet count measured after 16 hrs; settings: dose 100-1000 µg
# BMDC [2] = experiment: Induction of immune response in TLR7 knockout mouse BMDC cells assessed as increase in IFN-beta production at 10 to 100 uM incubated for 24 hrs by ELISA method; assay type: functional, cell-based; settings: dose 10-100 µM
# RAW264.7 [3] = experiment: Induction of apoptosis in mouse RAW264.7 cells assessed as apoptotic cells at 10 uM by flow cytometry analysis (reference value: 3.26 %); assay type: functional
# Mus musculus = species: Mus musculus; experiment: Induction of immune response in C57BL/6 mouse assessed as increase in total CD8+T cells percentage in spleen at 100 ug measured after 35 days by flow cytometry analysis; assay type: functional, organism-based; settings: dose 100.0 µg, time 35.0 day
# RAW264.7 [4] = experiment: Induction of apoptosis in mouse RAW264.7 cells assessed as necrotic cells at 12 uM by flow cytometry analysis (reference value: 20.6 %); assay type: functional
# BMDC [5] = experiment: Induction of IL-6 production in mouse BMDC cells at 100 uM; assay type: functional, cell-based
# RAW264.7 [6] = experiment: Upregulation of CD40 expression in mouse RAW264.7 cells measured after 24 hrs by flow cytometry analysis; assay type: functional, cell-based; settings: dose 10-50 µM
# B16-OVA melanoma cell [7] = experiment: Antitumor activity against mouse B16-OVA melanoma cell xenografted in C57BL/6 mouse assessed as effect on central memory T cell in spleen at 500 ug, sc in presence of OVAp by flow cytometry analysis; assay type: functional, organism-based; settings: dose 500.0 µg
# B16-OVA melanoma cell [8] = experiment: Antitumor activity against mouse B16-OVA melanoma cell xenografted in C57BL/6 mouse assessed as increase in number of memory T cells in spleen at 500 ug, sc in presence of OVAp by flow cytometry analysis; assay type: functional, organism-based; settings: dose 500.0 µg
# BMDC [9] = experiment: Induction of immune response in TLR7 knockout mouse BMDC cells assessed as increase in CXCL10 production at 10 to 100 uM incubated for 24 hrs by ELISA method; assay type: functional, cell-based; settings: dose 10-100 µM
# [10] = Antitumor activity against mouse B16-OVA melanoma cell xenografted in C57BL/6 mouse assessed as fold increase in CD8+T cells at 500 ug, sc in presence of OVAp by flow cytometry analysis; assay type: functional; settings: dose 500 µg
# B16-OVA melanoma cell [11] = experiment: Antitumor activity against mouse B16-OVA melanoma cell xenografted in C57BL/6 mouse assessed as at 500 ug administered 5 times for every 2 days from day 9 to 17 in presence of OVAp; assay type: functional, cell-based; settings: dose 500.0 µg, time 9.0 day
# RAW264.7 [12] = experiment: Upregulation of CD86 expression in mouse RAW264.7 cells measured after 24 hrs by flow cytometry analysis; assay type: functional, cell-based; settings: dose 10-50 µM
# [13] = Toxicity in C57BL/6 mouse assessed as effect on ALT level in serum at 500 ug measured after 1 day after immunization; settings: 24 h, dose 500 µg
# RAW264.7 [14] = experiment: Induction of apoptosis in mouse RAW264.7 cells assessed as necrotic cells at 4 uM by flow cytometry analysis (reference value: 20.6 %); assay type: functional
# [15] = Upregulation of CD86 expression in mouse RAW264.7 cells assessed as fold increase in fluorescence intensity at 20 uM measured after 24 hrs by flow cytometry analysis; assay type: functional
# [16] = Toxicity in BALB/c mouse assessed as increase in Mx2 expression at 100 to 1000 ug measured after 16 hrs in presence of hemagglutinin; settings: in vivo, dose 100-1000 µg
# [17] = Toxicity in C57BL/6 mouse assessed as effect on body weight at 500 ug measured from day 9 to 21; settings: in vivo, 312 h, dose 500 µg, time 13 day
# BMDC [18] = experiment: Induction of immune response in TLR7 knockout mouse BMDC cells assessed as increase in TNF-alpha production at 10 to 100 uM incubated for 24 hrs by ELISA method; assay type: functional, cell-based; settings: dose 10-100 µM
# RAW264.7 [19] = experiment: Induction of apoptosis in mouse RAW264.7 cells assessed as live cells at 10 uM by flow cytometry analysis (reference value: 75.4 %); assay type: functional
# [20] = Toxicity in C57BL/6 mouse assessed as effect on ALB level in serum at 500 ug measured after 1 day after immunization; settings: 24 h, dose 500 µg
# [21] = Toxicity in C57BL/6 mouse assessed as effect on liver at 500 ug, sc by H and E staining based analysis; assay type: organism-based; settings: in vivo, dose 500 µg
# RAW264.7 [22] = experiment: Induction of apoptosis in mouse RAW264.7 cells assessed as apoptotic cells at 4 uM by flow cytometry analysis (reference value: 3.26 %); assay type: functional
# [23] = Toxicity in C57BL/6 mouse assessed as effect on heart at 500 ug, sc by H and E staining based analysis; assay type: organism-based; settings: in vivo, dose 500 µg
# [24] = Antitumor activity against mouse B16-OVA melanoma cell xenografted in C57BL/6 mouse assessed as fold increase in IFN-gamma+TNF-alpha+ at 500 ug, sc in presence of OVAp by flow cytometry analysis; assay type: functional; settings: dose 500 µg
# RAW264.7 [25] = experiment: Induction of apoptosis in mouse RAW264.7 cells assessed as necrotic cells at 8 uM by flow cytometry analysis (reference value: 20.6 %); assay type: functional
# [26] = Toxicity in C57BL/6 mouse assessed as effect on ALP level in serum at 500 ug measured after 1 day after immunization; settings: 24 h, dose 500 µg
# RAW264.7 [27] = experiment: Induction of apoptosis in mouse RAW264.7 cells assessed as necrotic cells at 16 uM by flow cytometry analysis (reference value: 20.6 %); assay type: functional
# B16-OVA melanoma cell [28] = experiment: Antitumor activity against mouse B16-OVA melanoma cell xenografted in C57BL/6 mouse assessed as at 500 ug administered 5 times for every 2 days from day 9 to 17; assay type: functional, cell-based; settings: dose 500.0 µg, time 9.0 day
# RAW264.7 [29] = experiment: Induction of apoptosis in mouse RAW264.7 cells assessed as live cells at 4 uM by flow cytometry analysis (reference value: 75.4 %); assay type: functional
# [30] = Toxicity in C57BL/6 mouse assessed as effect on kidney at 500 ug, sc by H and E staining based analysis; assay type: organism-based; settings: in vivo, dose 500 µg
# [31] = Toxicity in BALB/c mouse assessed as increase in Timp1 expression at 100 to 1000 ug measured after 16 hrs in presence of hemagglutinin; settings: in vivo, dose 100-1000 µg
# [32] = Upregulation of CD86 expression in mouse BMDC cells assessed as fold increase at 5 to 50 uM measured after 24 hrs in presence of OVAp by flow cytometry analysis; assay type: functional; settings: dose 5-50 µM
# [33] = Toxicity in C57BL/6 mouse assessed as effect on spleen at 500 ug, sc by H and E staining based analysis; assay type: organism-based; settings: in vivo, dose 500 µg
# RAW264.7 [34] = experiment: Induction of apoptosis in mouse RAW264.7 cells assessed as live cells at 16 uM by flow cytometry analysis (reference value: 75.4 %); assay type: functional
# [35] = Toxicity in C57BL/6 mouse assessed as effect on AST level in serum at 500 ug measured after 1 day after immunization; settings: 24 h, dose 500 µg
# BMDC [36] = experiment: Induction of immune response in TLR7 knockout mouse BMDC cells assessed as increase in MIP-1alpha production at 10 to 100 uM incubated for 24 hrs by ELISA method; assay type: functional, cell-based; settings: dose 10-100 µM
smiles,measurement,setting,value
C[C@H](CCC(=O)NCCCCCCCNC(=O)CC[C@@H](C)[C@H]1CC[C@H]2[C@@H]3CC[C@@H]4C[C@H](O)CC[C@]4(C)[C@H]3C[C@H](O)[C@]12C)[C@H]1CC[C@H]2[C@@H]3CC[C@@H]4C[C@H](O)CC[C@]4(C)[C@H]3C[C@H](O)[C@]12C,Activity,[1],Dose-Dependent Effect
same,Activity,BMDC [2],inactive
same,Activity,RAW264.7 [3],2.23%
same,Activity,Mus musculus,Active
same,Activity,RAW264.7 [4],30.5%
same,Activity,BMDC [5],Active
same,Activity,RAW264.7 [6],Dose-Dependent Effect
same,Activity,B16-OVA melanoma cell [7],Active
same,Activity,B16-OVA melanoma cell [8],Active
same,Activity,BMDC [9],inactive
same,fold change (FC),[10],6.3
same,Activity,B16-OVA melanoma cell [11],Active
same,Activity,RAW264.7 [12],Dose-Dependent Effect
same,Activity,[13],Non-Toxic
same,Activity,RAW264.7 [14],19%
same,fold change (FC),[15],2
same,Activity,[16],Non-Toxic
same,Activity,[17],Non-Toxic
same,Activity,BMDC [18],inactive
same,Activity,RAW264.7 [19],67.2%
same,Activity,[20],Non-Toxic
same,Activity,[21],Non-Toxic
same,Activity,RAW264.7 [22],2.1%
same,Activity,[23],Non-Toxic
same,fold change (FC),[24],2.8
same,Activity,RAW264.7 [25],36.1%
same,Activity,[26],Non-Toxic
same,Activity,RAW264.7 [27],34%
same,Activity,B16-OVA melanoma cell [28],inactive
same,Activity,RAW264.7 [29],77.8%
same,Activity,[30],Non-Toxic
same,Activity,[31],Non-Toxic
same,fold change (FC),[32],1.2
same,Activity,[33],Non-Toxic
same,Activity,RAW264.7 [34],63.4%
same,Activity,[35],Non-Toxic
same,Activity,BMDC [36],inactive
